In ChEMBL document CHEMBL1146705, “Resistance towards exonucleases of dinucleotides with stereochemically altered internucleotide phosphate bonds” (Bioorg Med Chem Lett, 2004):

Legend:
[1] = Vmax towards phosphodiesterase I and II; NS = Non-substrate
[2] = Affinity for phosphodiesterase 1
[3] = Ratio of Vmax to that of Km towards phosphodiesterase I (PDE I)
[4] = Ratio of Vmax to that of Km towards phosphodiesterase II (PDE II)
[5] = Vmax towards phosphodiesterase 1

| SMILES | Vmax [1] | Km [2] [µM] | Ratio [3] | Ratio [4] | Vmax [5] [mM/min] |
| --- | --- | --- | --- | --- | --- |
| Nc1ccn(C2C[C@@H](OP(=O)(O)OC[C@H]3OC[C@H](n4ccc(N)nc4=O)[C@H]3O)[C@@H](COP(=O)(O)O)O2)c(=O)n1 (some centres undefined) | Non substrate | – | – | – | – |
| Nc1ccn([C@H]2C[C@H](O)[C@@H](COP(=O)(O)O[C@H]3[C@H](n4cnc5c(N)ncnc54)CO[C@@H]3COP(=O)(O)O)O2)c(=O)n1 | Non substrate | – | – | – | – |
| Nc1ccn(C2C[C@@H](O)[C@@H](COP(=O)(O)O[C@@H]3CC(n4ccc(N)nc4=O)O[C@@H]3CO)O2)c(=O)n1 (some centres undefined) | – | 900 | 1610 | 87.8 | 1450 |

Continued, values first:

| Vmax [1] | Km [2] [µM] | Ratio [3] | Ratio [4] | Vmax [5] [mM/min] | SMILES |
| --- | --- | --- | --- | --- | --- |
| – | 2700 | 52.4 | 21.1 | 141 | Nc1ccn(C2C[C@@H](O)[C@@H](COP(=O)(O)O[C@@H]3CC(n4cnc5c(N)ncnc54)O[C@@H]3CO)O2)c(=O)n1 (some centres undefined) |
| – | 1250 | 15.4 | 4.5 | 19.2 | Nc1ccn(C2C[C@@H](O)[C@@H](COP(=O)(O)O[C@H]3[C@@H](CO)OC[C@@H]3n3cnc4c(N)ncnc43)O2)c(=O)n1 (some centres undefined) |
